Results as given in patent EP2398468B1, “PHARMACEUTICAL COMPOSITIONS COMPRISING PRASUGREL BASE OR ITS PHARMACEUTICALLY ACCEPTABLE ACID ADDITION SALTS AND PROCESSES FOR THEIR PREPARATION” (KRKA, D.D., Novo Mesto, priority 2009, dated 2010).
≈ marks a conversion by molar mass, not a printed value. Where a name gives a salt, the structure may show the parent alone. Read-outs that look alike come from different tables or passages of the source.

Experiments:
[1] = Equilibrium solubility in aqueous solutions, shaking flask method for 24 hours; assay type: physicochemical; conditions: for solubility at 24 h: thermodynamic from solid; for solubility at 24 h / Solubility (mg/mL) room temp / Solubility (mg/mL) at 37°C: 24 hours
Experimental: The solubility of prasugrel base and some of its pharmaceutically acceptable salts in different dissolution media (in mg/mL) at room temperature and 37°C is given in Table 2. The equilibrium solubility of prasugrel base and some of its salts were checked in aqueous solutions at room temperature and 37 °C with shaking flask method for 24 hours (Heidoplh Incubator 1000, Unimax 1010). In comparison with prasugrel base, all salts are better soluble in lower pH values. In higher pH values the solubility decreases and at pH 6.8 the compound is slightly soluble to practically insoluble. […]

physchem = assay type: physicochemical

SMILES: CC(=O)Oc1cc2c(s1)CCN(C(C(=O)C1CC1)c1ccccc1F)C2 (stereo not shown) [Prasugrel hydrobromide]
- solubility at 24 h ([1]; AGJ (without pepsin) pH 1.2, 37 °C, pH 1.2, simulated gastric fluid, AGJ (without pepsin) pH 1.2, 37°C, read-out: Solubility (mg/mL) at 37°C): 4.1 mg/mL
- Solubility (mg/mL) room temp ([1]; AGJ (without pepsin) pH 1.2, room temperature, hydrobromide): 3.924 mg/mL
- Solubility (mg/mL) at 37°C ([1]; Acetate Buffer solution pH 4.0, 37°C, hydrobromide): 0.153 mg/mL
- Solubility (mg/mL) room temp ([1]; Acetate Buffer solution pH 4.0, room temperature, hydrobromide): 0.138 mg/mL
- Solubility (mg/mL) at 37°C ([1]; Phosphate Buffer solution pH 6.8, 37°C, hydrobromide): 0.009 mg/mL
- solubility at 24 h ([1]; phosphate buffer solution pH 6.8, pH 6.8, aqueous buffer, Phosphate Buffer solution pH 6.8, room temperature, read-out: Solubility (mg/mL) room temp): 0.003 mg/mL

SMILES: CC(=O)Oc1cc2c(s1)CCN(C(C(=O)C1CC1)c1ccccc1F)C2 (stereo not drawn) [Prasugrel base, 2-acetoxy-5-([alpha]-cyclopropylcarbonyl-2-fluorobenzyl)-4,5,6,7-tetrahydrothieno[3,2-c]pyridine]
- pKa (physchem): 5.4
- Solubility (mg/mL) at 37°C ([1]; AGJ (without pepsin) pH 1.2, 37°C): 3.23 mg/mL (≈ 8650 µM)
- Solubility (mg/mL) room temp ([1]; AGJ (without pepsin) pH 1.2, room temperature): 1.54 mg/mL (≈ 4120 µM)
- Solubility (mg/mL) at 37°C ([1]; Acetate Buffer solution pH 4.0, 37°C): 0.03 mg/mL (≈ 80.3 µM)
- Solubility (mg/mL) room temp ([1]; Acetate Buffer solution pH 4.0, room temperature): 0.03 mg/mL (≈ 80.3 µM)

SMILES: CC(=O)Oc1cc2c(s1)CCN(C(C(=O)C1CC1)c1ccccc1F)C2 (stereo not shown) [Prasugrel hydroiodide]
- Solubility (mg/mL) at 37°C ([1]; AGJ (without pepsin) pH 1.2, 37°C, hydroiodide): 3.660 mg/mL
- Solubility (mg/mL) room temp ([1]; AGJ (without pepsin) pH 1.2, room temperature, hydroiodide): 2.600 mg/mL
- Solubility (mg/mL) at 37°C ([1]; Acetate Buffer solution pH 4.0, 37°C, hydroiodide): 0.166 mg/mL
- Solubility (mg/mL) room temp ([1]; Acetate Buffer solution pH 4.0, room temperature, hydroiodide): 0.132 mg/mL
- Solubility (mg/mL) at 37°C ([1]; Phosphate Buffer solution pH 6.8, 37°C, hydroiodide): 0.0018 mg/mL
- Solubility (mg/mL) room temp ([1]; Phosphate Buffer solution pH 6.8, room temperature, hydroiodide): 0.00316 mg/mL
- equilibrium solubility ([1]; compared with hydrochloride salt of prasugrel): comparable with solubility of hydrochloride salt of prasugrel

SMILES: CC(=O)Oc1cc2c(s1)CCN(C(C(=O)C1CC1)c1ccccc1F)C2 (stereo not shown) [Prasugrel hydrochloride]
- Solubility (mg/mL) at 37°C ([1]; AGJ (without pepsin) pH 1.2, 37°C, hydrochloride): 4.43 mg/mL
- Solubility (mg/mL) room temp ([1]; AGJ (without pepsin) pH 1.2, room temperature, hydrochloride): 5.00 mg/mL
- Solubility (mg/mL) at 37°C ([1]; Acetate Buffer solution pH 4.0, 37°C, hydrochloride): 0.08 mg/mL
- Solubility (mg/mL) room temp ([1]; Acetate Buffer solution pH 4.0, room temperature, hydrochloride): 0.07 mg/mL
